Measured values reported in patent publication US5252749A, “Ethers of thienocyclopentanone oximes, their preparation and pharmaceutical compositions containing them” (Elf Sanofi, priority 1991, dated 1993).

Columns and labels:
5HT3 receptors = details: rats, Bezold-Jarisch reflex; compounds studied in J. Pharm. Pharmacol. 40, 301-302 (1988); cited from earlier work
5HT1D receptors = molecular target: T1, 5HT1D receptors (Bos taurus, UniProt F1MGM3); assay: Displacement of tritiated serotonin from 5HT1D receptors on membrane preparations of bovine caudate nuclei; details: bovine caudate nuclei membranes, in vitro, read-out: concentration which inhibits 50% of the binding of the tritiated compound (IC50)
T1 construct: membrane preparations of bovine caudate nuclei; from tissue; host or cells: bovine caudate nuclei, membrane preparation

[1] = in man; cited from earlier work
5HT1D receptor = details: Headache 29, 420-422, July 1989; cited from earlier work
5HT1A receptor = details: Headache 29, 420-422, July 1989; cited from earlier work

T1 sequence (F1MGM3 1-403): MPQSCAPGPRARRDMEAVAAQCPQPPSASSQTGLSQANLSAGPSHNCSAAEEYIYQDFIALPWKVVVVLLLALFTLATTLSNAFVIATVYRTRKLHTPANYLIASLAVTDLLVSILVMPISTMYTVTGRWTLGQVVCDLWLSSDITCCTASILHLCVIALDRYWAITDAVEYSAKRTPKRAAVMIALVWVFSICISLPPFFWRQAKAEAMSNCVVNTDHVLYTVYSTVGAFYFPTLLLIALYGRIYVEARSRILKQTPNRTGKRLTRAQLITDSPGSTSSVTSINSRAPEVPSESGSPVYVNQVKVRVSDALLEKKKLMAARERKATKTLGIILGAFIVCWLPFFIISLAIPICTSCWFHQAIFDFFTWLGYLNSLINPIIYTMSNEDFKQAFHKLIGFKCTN

Row | Compound | dose which inhibits 50% of the serotonin activity (ID50) (5HT3 receptors) | IC50 (5HT1D receptors) | antimigraine activity [1] | agonist activity at the 5HT1D receptor (5HT1D receptor) | agonist activity at the 5HT1A receptor (5HT1A receptor)
1 | CN1[C@@H]2CC[C@H]1CC(OC(=O)c1c[nH]c3ccccc13)C2 (stereo partly shown) [ICS 205-930] | approximately 1 μg/kg | – | – | – | –
2 | CCN(CC)CCNC(=O)c1cc(Cl)c(N)cc1OC [metoclopramide] | ~0.4 mg/kg | – | – | – | –
3 | CNS(=O)(=O)Cc1ccc2[nH]cc(CCN(C)C)c2c1 [sumatriptan] | – | ~100 nM | marked antimigraine activity in man | powerful agonist of the 5HT1D receptor | weak agonist of the 5HT1A receptor
4 | COc1cc(N)c(Cl)cc1C(=O)NC1CN2CCC1CC2 (stereo not shown) [zacopride] | ~0.00025 mg/kg | – | – | – | –
